Assay results from ChEMBL document CHEMBL4842372, “Discovery of ARD-2585 as an Exceptionally Potent and Orally Active PROTAC Degrader of Androgen Receptor for the Treatment of Advanced Prostate Cancer” (J Med Chem, 2021).

How the values were obtained:
VCaP [1] = assay: Growth inhibition of human VCaP cells assessed as cell viability by WST-8 assay; assay type: functional, cell-based
VCaP [2] = assay: Antitumor activity against human VCaP cells xenografted in CB17:SCID mouse assessed as tumor growth inhibition at 40 mg/kg, po treated for 37 days relative to control; assay type: functional; conditions: 888 h, time 37 day, read-out: TGI
[3] = target: Protein cereblon/Androgen receptor (Homo sapiens, UniProt P10275+Q96SW2); assay: Protac activity at CRBN/AR in human VCaP cells assessed as AR degradation after 24 hrs by Western blot analysis; assay type: cell-based
[4] = Oral bioavailability in SCID mouse at 3 mg/kg by LC-MS/MS analysis; assay type: ADME, organism-based; conditions: in vivo
[5] = target: Protein cereblon/Androgen receptor (Homo sapiens, UniProt P10275+Q96SW2, T878A); conditions: lncap
LNCaP = assay: Growth inhibition of human LNCaP cells carrying AR T878A mutant assessed as cell viability by WST-8 assay; assay type: functional, cell-based

Sequence of Protein cereblon/Androgen receptor (Homo sapiens, UniProt P10275+Q96SW2) (P10275 whole entry): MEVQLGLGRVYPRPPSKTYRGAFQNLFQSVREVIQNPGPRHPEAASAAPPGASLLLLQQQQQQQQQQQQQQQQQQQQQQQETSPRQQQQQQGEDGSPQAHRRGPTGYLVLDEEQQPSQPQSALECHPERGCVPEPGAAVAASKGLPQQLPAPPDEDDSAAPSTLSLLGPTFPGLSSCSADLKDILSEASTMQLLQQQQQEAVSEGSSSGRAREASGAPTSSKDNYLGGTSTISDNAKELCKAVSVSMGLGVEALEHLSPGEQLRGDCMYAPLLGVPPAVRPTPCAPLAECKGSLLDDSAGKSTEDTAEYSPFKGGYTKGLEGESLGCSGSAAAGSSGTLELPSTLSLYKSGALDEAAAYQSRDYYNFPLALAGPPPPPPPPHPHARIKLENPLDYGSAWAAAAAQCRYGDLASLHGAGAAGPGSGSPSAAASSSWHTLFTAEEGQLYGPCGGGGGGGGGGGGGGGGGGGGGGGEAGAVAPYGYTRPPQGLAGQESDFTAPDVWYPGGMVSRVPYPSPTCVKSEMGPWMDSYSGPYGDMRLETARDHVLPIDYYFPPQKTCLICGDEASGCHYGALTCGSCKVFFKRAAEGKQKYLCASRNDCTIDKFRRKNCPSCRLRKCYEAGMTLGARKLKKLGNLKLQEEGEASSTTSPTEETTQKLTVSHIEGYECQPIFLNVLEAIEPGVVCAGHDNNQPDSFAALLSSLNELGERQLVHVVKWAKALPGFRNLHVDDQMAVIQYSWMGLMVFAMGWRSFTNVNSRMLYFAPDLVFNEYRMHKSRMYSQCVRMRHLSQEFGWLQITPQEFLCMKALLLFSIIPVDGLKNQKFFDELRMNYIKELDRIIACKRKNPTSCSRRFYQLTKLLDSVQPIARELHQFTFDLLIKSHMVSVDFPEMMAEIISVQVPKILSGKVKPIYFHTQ
Sequence of Protein cereblon/Androgen receptor (Homo sapiens, UniProt P10275+Q96SW2) (Q96SW2 whole entry): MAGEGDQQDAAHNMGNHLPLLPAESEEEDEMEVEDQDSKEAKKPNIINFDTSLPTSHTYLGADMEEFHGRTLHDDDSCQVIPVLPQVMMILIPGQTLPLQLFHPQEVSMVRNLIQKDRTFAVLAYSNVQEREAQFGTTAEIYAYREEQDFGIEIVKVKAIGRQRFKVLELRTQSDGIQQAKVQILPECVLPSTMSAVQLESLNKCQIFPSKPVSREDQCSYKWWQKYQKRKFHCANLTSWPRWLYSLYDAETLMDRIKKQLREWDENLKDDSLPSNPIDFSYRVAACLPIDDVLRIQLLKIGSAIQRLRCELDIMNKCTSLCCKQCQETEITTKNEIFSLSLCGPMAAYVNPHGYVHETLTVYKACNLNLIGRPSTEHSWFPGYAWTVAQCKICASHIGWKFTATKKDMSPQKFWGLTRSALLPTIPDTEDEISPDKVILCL
Sequence of Protein cereblon/Androgen receptor (Homo sapiens, UniProt P10275+Q96SW2, T878A) (P10275 whole entry T878A, stated change not applied): as the sequence (P10275 whole entry) above, with T878A counted along it
Sequence of Protein cereblon/Androgen receptor (Homo sapiens, UniProt P10275+Q96SW2, T878A) (Q96SW2 whole entry, stated change not applied): as the sequence (Q96SW2 whole entry) above

| IC50 (VCaP [1]) [nM] | DC50 [3] [nM] | Structure (SMILES) | further results |
| --- | --- | --- | --- |
| > 1000 | – | N#Cc1ccc(O[C@H]2CC[C@H](NC(=O)c3ccc(N4CCC(N5CCN(c6ccc7c(c6)C(=O)N(C6CCC(=O)NC6=O)C7=O)CC5)CC4)cc3)C2)cc1Cl (stereo partly drawn) | – |
| – | – | CNC(=O)c1ccc(N2C(=S)N(c3ccc(C#N)c(C(F)(F)F)c3)C(=O)C2(C)C)cc1F [ENZALUTAMIDE] | inhibition in vivo at 40 mg/kg (VCaP [2]): 45% |
| 6.7 | 0.3 | N#Cc1ccc(O[C@H]2CC[C@H](NC(=O)c3ccc(N4CCN(CC5CN(c6ccc7c(c6)C(=O)N(C6CCC(=O)NC6=O)C7=O)C5)CC4)cc3)CC2)cc1Cl (stereo partly drawn) | – |
| – | 0.7 | N#Cc1ccc(O[C@H]2CC[C@H](NC(=O)c3ccc(NCCCCCCCNc4ccc5c(c4)C(=O)N(C4CCC(=O)NC4=O)C5=O)cc3)CC2)cc1Cl (stereo partly drawn) | – |
| – | 1.5 | N#Cc1ccc(O[C@H]2CC[C@H](NC(=O)c3ccc(NCCCCCCCCNc4ccc5c(c4)C(=O)N(C4CCC(=O)NC4=O)C5=O)cc3)CC2)cc1Cl (stereo partly drawn) | – |
| > 1000 | – | N#Cc1ccc(OC2CCN(C(=O)c3ccc(N4CCC(N5CCN(c6ccc7c(c6)C(=O)N(C6CCC(=O)NC6=O)C7=O)CC5)CC4)cc3)CC2)cc1Cl (stereo not drawn) | – |
| – | 0.3 | N#Cc1ccc(O[C@H]2CC[C@H](NC(=O)c3ccc(N4CCN(C5CCN(c6ccc7c(c6)C(=O)N(C6CCC(=O)NC6=O)C7=O)CC5)CC4)cc3)CC2)cc1Cl (stereo partly drawn) | – |
| – | – | CN(c1ccc(C#N)c(Cl)c1)[C@H]1CC[C@H](NC(=O)c2ccc(N3CCN(CC4CN(c5ccc6c(c5)C(=O)N(C5CCC(=O)NC5=O)C6=O)C4)CC3)cc2)CC1 (stereo partly drawn) | F [4]: 30% |
| > 1000 | – | N#Cc1ncc(N2C(=O)C3(CCC3)N(c3ccc(C(=O)N4CCN(C5CCN(c6ccc7c(c6)C(=O)N(C6CCC(=O)NC6=O)C7=O)CC5)CC4)c(F)c3)C2=S)cc1C(F)(F)F (stereo not drawn) | – |
| – | 2.7 | N#Cc1ccc(O[C@H]2CC[C@H](NC(=O)c3ccc(N4CCN(CCCNc5ccc6c(c5)C(=O)N(C5CCC(=O)NC5=O)C6=O)CC4)cc3)CC2)cc1Cl (stereo partly drawn) | – |
| – | 0.9 | N#Cc1ccc(O[C@H]2CC[C@H](NC(=O)c3ccc(N4CCN(CCCCCNc5ccc6c(c5)C(=O)N(C5CCC(=O)NC5=O)C6=O)CC4)cc3)CC2)cc1Cl (stereo partly drawn) | – |
| – | 0.6 | N#Cc1ccc(O[C@H]2CC[C@H](NC(=O)c3ccc(NCCCCCCNc4ccc5c(c4)C(=O)N(C4CCC(=O)NC4=O)C5=O)cc3)CC2)cc1Cl (stereo partly drawn) | – |
| 2.7 | – | N#Cc1ccc(O[C@H]2CC[C@H](NC(=O)c3ccc(N4CCN(CC5CCN(c6ccc7c(c6)C(=O)N(C6CCC(=O)NC6=O)C7=O)CC5)CC4)cc3)CC2)cc1Cl (stereo partly drawn) | – |

| Structure (SMILES) | IC50 (VCaP [1]) [nM] | DC50 [3] [nM] | further results |
| --- | --- | --- | --- |
| CN(c1ccc(C#N)c(Cl)c1)[C@H]1CC[C@H](NC(=O)c2ccc(N3CC(CN4CCN(c5ccc6c(c5)C(=O)N(C5CCC(=O)NC5=O)C6=O)CC4)C3)cc2)CC1 (stereo partly drawn) | 4.3 | – | F [4]: 34%; DC50 [5]: 1.9 nM; IC50 (LNCaP): 11.6 nM |
